Key:
[1] = target: T1, Human melanin-concentrating hormone (MCH1) (Homo sapiens, UniProt Q99705); assay: Radioligand binding, human melanin-concentrating hormone MCH1 membranes, FlashPlate, [125I]-S36057; conditions: compound at 10 μM
T1 construct: purchased Perkin Elmer Biosignal
Method in brief: (§1)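 Cloned human receptor membranes were coated onto FlashPlate wells and incubated with radioligand and compound (added from a 0.5 mM DMSO daughter plate) for 1 hour at room temperature in the dark. Scintillation counting gave percent inhibition, with DMSO defining total and reference ligand defining non-specific binding.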

Mouse urotensin (mUR2) = target: T2, Mouse urotensin (mUR2) (Mus musculus, UniProt Q8VIH9); assay: Radioligand binding, mouse urotensin mUR2 membranes, FlashPlate, [125I]-Urotensin II; conditions: compound at 10 μM, [125I]-Urotensin II
T2 construct: purchased Perkin Elmer Biosignal
T2 sequence (Q8VIH9 1-385): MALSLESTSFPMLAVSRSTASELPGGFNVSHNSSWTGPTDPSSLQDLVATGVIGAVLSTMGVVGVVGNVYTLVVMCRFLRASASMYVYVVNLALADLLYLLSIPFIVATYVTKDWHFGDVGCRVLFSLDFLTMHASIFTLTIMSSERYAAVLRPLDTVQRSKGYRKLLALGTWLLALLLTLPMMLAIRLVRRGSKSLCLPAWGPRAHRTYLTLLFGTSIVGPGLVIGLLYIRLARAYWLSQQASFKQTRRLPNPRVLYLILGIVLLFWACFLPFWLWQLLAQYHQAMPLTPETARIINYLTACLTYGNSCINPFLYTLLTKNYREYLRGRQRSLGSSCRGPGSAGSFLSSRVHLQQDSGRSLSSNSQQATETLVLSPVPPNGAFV
Method in brief: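 Cloned mouse urotensin (mUR2) receptor membranes from Perkin Elmer Biosignal were immobilized in FlashPlate microplates using a proprietary coating. Each well got 19.5 μl buffer, then 0.5 μl of DMSO, reference ligand, or compound. Adding 5 μl of [125I]-Urotensin II, diluted to 5× final concentration in binding buffer, started binding. Plates were sealed with TopSeal-A and incubated 1 hour at room temperature in the dark. Wells were counted for 30 seconds each on a TopCount after a 60-second delay, and percentage inhibition was calculated.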

Human κ-Opioid (KOP) = target: T3, Human κ-Opioid (KOP) (Homo sapiens, UniProt P41145); assay: Radioligand binding, human κ-opioid (KOP) membranes, filtration, [3H]-Diprenorphine; conditions: compound at 10 μM, [3H]-Diprenorphine
T3 construct: purchased Perkin Elmer Biosignal
T3 sequence (P41145 whole entry): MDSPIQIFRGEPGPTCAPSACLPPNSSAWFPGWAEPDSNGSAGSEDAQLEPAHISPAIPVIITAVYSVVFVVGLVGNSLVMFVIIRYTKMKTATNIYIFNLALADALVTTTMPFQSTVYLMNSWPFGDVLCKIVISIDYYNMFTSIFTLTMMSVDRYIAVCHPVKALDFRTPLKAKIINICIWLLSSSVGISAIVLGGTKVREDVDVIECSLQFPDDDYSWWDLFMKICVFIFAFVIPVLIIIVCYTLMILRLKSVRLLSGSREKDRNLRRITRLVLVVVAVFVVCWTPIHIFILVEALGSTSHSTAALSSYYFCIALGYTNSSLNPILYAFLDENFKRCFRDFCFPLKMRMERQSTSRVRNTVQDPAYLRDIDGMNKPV
Method in brief: (§2)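 Membranes from cloned human receptors were incubated with compound and radioligand for 1 hour at room temperature. Bound ligand was collected on 0.3% PEI-soaked filters, washed with cold 50 mM Tris-HCl pH 7.4, and counted by scintillation. Percent inhibition was computed against DMSO totals and reference-ligand nonspecific wells.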

Human melanocortin (MC5) = target: T4, Human melanocortin (MC5) (Homo sapiens, UniProt P33032); assay: Radioligand binding, human melanocortin MC5 membranes, FlashPlate, [125I]-NDP-αMSH; conditions: compound at 10 μM, [125I]-NDP-αMSH
T4 construct: purchased Perkin Elmer Biosignal
T4 sequence (P33032 whole entry): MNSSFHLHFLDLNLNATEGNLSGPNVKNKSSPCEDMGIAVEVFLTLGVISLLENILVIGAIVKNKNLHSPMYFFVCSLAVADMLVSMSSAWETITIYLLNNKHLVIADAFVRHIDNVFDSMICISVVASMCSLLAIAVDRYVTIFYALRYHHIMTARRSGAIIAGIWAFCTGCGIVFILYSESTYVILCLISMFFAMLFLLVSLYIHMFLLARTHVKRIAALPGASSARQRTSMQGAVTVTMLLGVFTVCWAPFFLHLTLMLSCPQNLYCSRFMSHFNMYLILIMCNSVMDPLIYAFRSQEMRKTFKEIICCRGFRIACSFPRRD
Method in brief: as §1

Human μ-opioid (MOP) = target: T5, Human μ-opioid (MOP) (Homo sapiens, UniProt P35372); assay: Radioligand binding, human μ-opioid (MOP) membranes, FlashPlate, [3H]-Naloxone; conditions: compound at 10 μM, [3H]-Naloxone
T5 construct: purchased Perkin Elmer Biosignal
T5 sequence (P35372 whole entry): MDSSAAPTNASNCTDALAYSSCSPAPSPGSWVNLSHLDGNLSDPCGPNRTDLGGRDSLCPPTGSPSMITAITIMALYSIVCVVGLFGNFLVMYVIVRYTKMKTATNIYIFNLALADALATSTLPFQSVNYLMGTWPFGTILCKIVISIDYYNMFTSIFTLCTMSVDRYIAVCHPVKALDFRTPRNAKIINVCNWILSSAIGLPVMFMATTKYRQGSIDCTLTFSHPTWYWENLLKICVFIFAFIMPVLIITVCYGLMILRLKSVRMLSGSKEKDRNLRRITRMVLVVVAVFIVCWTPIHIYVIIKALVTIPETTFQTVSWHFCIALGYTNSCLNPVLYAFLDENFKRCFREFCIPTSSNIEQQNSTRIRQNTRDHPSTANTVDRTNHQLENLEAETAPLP
Method in brief: as §1

[2] = target: T6, Human neuropeptide Y (NPY-Y1) (Homo sapiens, UniProt P25929); assay: Radioligand binding, human neuropeptide Y NPY-Y1 membranes, FlashPlate, [125I]-PYY; conditions: compound at 10 μM, [125I]-PYY
T6 construct: purchased Perkin Elmer Biosignal
T6 sequence (P25929 1-384): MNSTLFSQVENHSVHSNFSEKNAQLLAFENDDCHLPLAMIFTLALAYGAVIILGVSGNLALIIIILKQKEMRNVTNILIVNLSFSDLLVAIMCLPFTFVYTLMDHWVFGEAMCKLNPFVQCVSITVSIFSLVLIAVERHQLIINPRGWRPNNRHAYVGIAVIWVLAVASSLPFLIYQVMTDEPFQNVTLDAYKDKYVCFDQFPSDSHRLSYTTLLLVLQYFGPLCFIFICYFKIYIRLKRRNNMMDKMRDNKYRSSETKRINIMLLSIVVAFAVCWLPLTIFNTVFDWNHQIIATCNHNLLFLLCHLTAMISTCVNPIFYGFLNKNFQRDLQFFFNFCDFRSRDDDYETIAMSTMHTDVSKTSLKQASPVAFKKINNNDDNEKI
Method in brief: as §1

Human opioid (ORL1) = target: T7, Human opioid (ORL1) (Homo sapiens, UniProt P41146); assay: Radioligand binding, human opioid ORL1 membranes, FlashPlate, [125I]-Nociceptin; conditions: compound at 10 μM, [125I]-Nociceptin
T7 construct: purchased Perkin Elmer Biosignal
T7 sequence (P41146 whole entry): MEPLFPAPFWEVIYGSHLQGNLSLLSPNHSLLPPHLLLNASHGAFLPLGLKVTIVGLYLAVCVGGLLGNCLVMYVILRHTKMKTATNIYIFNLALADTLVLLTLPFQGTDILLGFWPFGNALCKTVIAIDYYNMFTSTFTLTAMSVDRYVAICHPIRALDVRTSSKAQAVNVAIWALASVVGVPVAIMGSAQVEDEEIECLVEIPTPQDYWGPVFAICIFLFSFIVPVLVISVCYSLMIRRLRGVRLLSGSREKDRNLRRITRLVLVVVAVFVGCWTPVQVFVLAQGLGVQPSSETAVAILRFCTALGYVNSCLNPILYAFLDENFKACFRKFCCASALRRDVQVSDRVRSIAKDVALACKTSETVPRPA
Method in brief: as §1

Human Melanocortin (MC4) = target: T8, Human Melanocortin (MC4) (Homo sapiens, UniProt P32245); assay: Radioligand binding, human melanocortin MC4 membranes, FlashPlate, [125I]-NDP-αMSH; conditions: compound at 10 μM, [125I]-NDP-αMSH
T8 construct: purchased Perkin Elmer Biosignal
T8 sequence (P32245 whole entry): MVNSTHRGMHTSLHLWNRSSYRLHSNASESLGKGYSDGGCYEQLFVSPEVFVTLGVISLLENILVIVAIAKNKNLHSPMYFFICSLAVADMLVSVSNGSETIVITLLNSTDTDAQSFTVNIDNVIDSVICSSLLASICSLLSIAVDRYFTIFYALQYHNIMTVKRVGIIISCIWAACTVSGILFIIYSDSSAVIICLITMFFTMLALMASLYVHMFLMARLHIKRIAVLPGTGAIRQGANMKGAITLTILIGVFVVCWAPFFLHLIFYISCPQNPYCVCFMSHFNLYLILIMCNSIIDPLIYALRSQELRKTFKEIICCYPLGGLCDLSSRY
Method in brief: as §1

Human Melanocortin (MC3) = target: T9, Human Melanocortin (MC3) (Homo sapiens, UniProt P41968); assay: Radioligand binding, human melanocortin MC3 membranes, FlashPlate, [125I]-NDP-αMSH; conditions: compound at 10 μM, [125I]-NDP-αMSH
T9 construct: purchased Perkin Elmer Biosignal
T9 sequence (P41968 whole entry): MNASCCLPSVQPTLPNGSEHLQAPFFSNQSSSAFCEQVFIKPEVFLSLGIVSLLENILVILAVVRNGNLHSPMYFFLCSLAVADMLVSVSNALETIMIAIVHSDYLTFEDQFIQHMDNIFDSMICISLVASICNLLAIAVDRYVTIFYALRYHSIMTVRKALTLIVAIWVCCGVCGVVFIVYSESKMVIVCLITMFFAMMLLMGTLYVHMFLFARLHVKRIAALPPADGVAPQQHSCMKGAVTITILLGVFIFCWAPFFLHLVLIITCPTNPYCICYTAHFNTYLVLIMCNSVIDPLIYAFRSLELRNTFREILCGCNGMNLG
Method in brief: as §1

Human neurokinin (NK1) = target: T10, Human neurokinin (NK1) (Homo sapiens, UniProt P25103); assay: Radioligand binding, human neurokinin NK1 membranes, filtration, [125I]-Substance P; conditions: compound at 10 μM, [125I]-Substance P
T10 construct: purchased Perkin Elmer Biosignal
T10 sequence (P25103 whole entry): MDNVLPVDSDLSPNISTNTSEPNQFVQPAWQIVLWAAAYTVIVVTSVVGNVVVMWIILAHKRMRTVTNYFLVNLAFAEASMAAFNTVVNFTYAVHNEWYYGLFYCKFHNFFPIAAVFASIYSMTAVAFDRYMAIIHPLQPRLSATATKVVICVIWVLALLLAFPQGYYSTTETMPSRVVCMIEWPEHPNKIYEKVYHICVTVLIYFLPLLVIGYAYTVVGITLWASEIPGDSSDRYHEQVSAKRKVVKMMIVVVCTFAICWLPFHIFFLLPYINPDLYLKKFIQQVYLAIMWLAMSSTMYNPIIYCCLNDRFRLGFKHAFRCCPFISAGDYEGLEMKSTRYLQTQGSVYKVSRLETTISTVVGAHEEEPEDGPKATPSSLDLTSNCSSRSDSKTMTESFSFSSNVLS
Method in brief: as §2

Human δ-opioid (DOP) = target: T11, Human δ-opioid (DOP) (Homo sapiens, UniProt P41143); assay: Radioligand binding, human δ-opioid (DOP) membranes, FlashPlate, [3H]-Bremazocine; conditions: compound at 10 μM, [3H]-Bremazocine
T11 construct: purchased Perkin Elmer Biosignal
T11 sequence (P41143 whole entry): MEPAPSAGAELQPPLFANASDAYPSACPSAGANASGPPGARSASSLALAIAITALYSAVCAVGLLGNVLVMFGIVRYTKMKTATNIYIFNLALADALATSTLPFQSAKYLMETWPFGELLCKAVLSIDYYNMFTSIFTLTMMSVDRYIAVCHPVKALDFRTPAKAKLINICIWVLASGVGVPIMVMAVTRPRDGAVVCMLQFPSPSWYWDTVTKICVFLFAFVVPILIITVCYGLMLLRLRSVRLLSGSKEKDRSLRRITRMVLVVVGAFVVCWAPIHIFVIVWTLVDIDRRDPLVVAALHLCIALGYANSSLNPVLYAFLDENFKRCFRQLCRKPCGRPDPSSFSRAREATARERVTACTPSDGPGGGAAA
Method in brief: as §1

T1 sequence (Q99705 whole entry): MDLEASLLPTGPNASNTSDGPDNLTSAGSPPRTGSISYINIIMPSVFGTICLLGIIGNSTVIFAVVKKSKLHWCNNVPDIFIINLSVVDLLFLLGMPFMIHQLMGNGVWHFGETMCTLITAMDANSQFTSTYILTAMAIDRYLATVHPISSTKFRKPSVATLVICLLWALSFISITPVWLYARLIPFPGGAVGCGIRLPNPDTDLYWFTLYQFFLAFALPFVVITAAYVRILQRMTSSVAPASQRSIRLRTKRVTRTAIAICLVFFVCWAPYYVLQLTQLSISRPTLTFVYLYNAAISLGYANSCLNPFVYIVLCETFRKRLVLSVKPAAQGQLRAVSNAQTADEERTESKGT

SMILES: COCC1OC(OCc2ccc(Cl)cc2)C(NC(=O)CCCNC(=N)N)C(OCc2ccccc2)C1O (stereo not drawn) [compound 198]
- A6: inhibition of radioligand binding ([1]; [125I]-S36057, FlashPlate): − (“−” indicates less than 50% inhibition at 10 μM)
- A11: inhibition of radioligand binding (Mouse urotensin (mUR2); FlashPlate): − (“−” indicates less than 50% inhibition at 10 μM)
- A2: inhibition of radioligand binding (Human κ-Opioid (KOP); filtration): − (“−” indicates less than 50% inhibition at 10 μM)
- A5: inhibition of radioligand binding (Human melanocortin (MC5); FlashPlate): + (“+” indicates greater than 50% inhibition at 10 μM)
- A7: inhibition of radioligand binding (Human μ-opioid (MOP); FlashPlate): − (“−” indicates less than 50% inhibition at 10 μM)
- A9: inhibition of radioligand binding ([2]; FlashPlate): − (“−” indicates less than 50% inhibition at 10 μM)
- A10: inhibition of radioligand binding (Human opioid (ORL1); FlashPlate): − (“−” indicates less than 50% inhibition at 10 μM)
- A4: inhibition of radioligand binding (Human Melanocortin (MC4); FlashPlate): − (“−” indicates less than 50% inhibition at 10 μM)
- A3: inhibition of radioligand binding (Human Melanocortin (MC3); FlashPlate): − (“−” indicates less than 50% inhibition at 10 μM)
- A8: inhibition of radioligand binding (Human neurokinin (NK1); filtration): + (“+” indicates greater than 50% inhibition at 10 μM)
- A1: inhibition of radioligand binding (Human δ-opioid (DOP); FlashPlate): − (“−” indicates less than 50% inhibition at 10 μM)

SMILES: NCCCC(=O)NC1C(OCc2ccccc2)OC(COCc2ccccc2)C(O)C1OCc1ccc2ccccc2c1 (stereo not drawn) [compound 376]
- A6: inhibition of radioligand binding, human melanin-concentrating hormone (MCH1) ([1]; [125I]-S36057): − (“−” indicates less than 50% inhibition at 10 μM)
- A11: inhibition of radioligand binding, mouse urotensin (mUR2) (Mouse urotensin (mUR2)): − (“−” indicates less than 50% inhibition at 10 μM)
- A2: inhibition of radioligand binding, human κ-opioid (KOP) (Human κ-Opioid (KOP)): − (“−” indicates less than 50% inhibition at 10 μM)
- A5: inhibition of radioligand binding, human melanocortin (MC5) (Human melanocortin (MC5)): + (“+” indicates greater than 50% inhibition at 10 μM)
- A7: inhibition of radioligand binding, human μ-opioid (MOP) (Human μ-opioid (MOP)): − (“−” indicates less than 50% inhibition at 10 μM)
- A9: inhibition of radioligand binding, human neuropeptide Y (NPY-Y1) [2]: − (“−” indicates less than 50% inhibition at 10 μM)
- A10: inhibition of radioligand binding, human opioid (ORL1) (Human opioid (ORL1)): − (“−” indicates less than 50% inhibition at 10 μM)
- A4: inhibition of radioligand binding, human melanocortin (MC4) (Human Melanocortin (MC4)): + (“+” indicates greater than 50% inhibition at 10 μM)
- A3: inhibition of radioligand binding, human melanocortin (MC3) (Human Melanocortin (MC3)): − (“−” indicates less than 50% inhibition at 10 μM)
- A8: inhibition of radioligand binding, human neurokinin (NK1) (Human neurokinin (NK1)): + (“+” indicates greater than 50% inhibition at 10 μM)
- A1: inhibition of radioligand binding, human δ-opioid (DOP) (Human δ-opioid (DOP)): − (“−” indicates less than 50% inhibition at 10 μM)

SMILES: COCC1OC(OCc2ccccc2)C(NC(=O)CCNC(=N)N)C(OCc2ccc(Cl)cc2)C1O (stereo not drawn) [compound 179]
- A6 radioligand binding, percentage inhibition ([1]; [125I]-S36057): + (“+” indicates greater than 50% inhibition at 10 μM)
- A11 radioligand binding, percentage inhibition (Mouse urotensin (mUR2)): − (“−” indicates less than 50% inhibition at 10 μM)
- A2 radioligand binding, percentage inhibition (Human κ-Opioid (KOP)): − (“−” indicates less than 50% inhibition at 10 μM)
- A5 radioligand binding, percentage inhibition (Human melanocortin (MC5)): + (“+” indicates greater than 50% inhibition at 10 μM)
- A7 radioligand binding, percentage inhibition (Human μ-opioid (MOP)): − (“−” indicates less than 50% inhibition at 10 μM)
- A9 radioligand binding, percentage inhibition [2]: − (“−” indicates less than 50% inhibition at 10 μM)
- A10 radioligand binding, percentage inhibition (Human opioid (ORL1)): − (“−” indicates less than 50% inhibition at 10 μM)
- A4 radioligand binding, percentage inhibition (Human Melanocortin (MC4)): + (“+” indicates greater than 50% inhibition at 10 μM)
- A3 radioligand binding, percentage inhibition (Human Melanocortin (MC3)): + (“+” indicates greater than 50% inhibition at 10 μM)
- A8 radioligand binding, percentage inhibition (Human neurokinin (NK1)): + (“+” indicates greater than 50% inhibition at 10 μM)
- A1 radioligand binding, percentage inhibition (Human δ-opioid (DOP)): + (“+” indicates greater than 50% inhibition at 10 μM)

From US20080009418A1, “Selective Inhibitors” (Alchemia LTD., priority 2004, published 2008)
